{
  "source": "patent US6914045B2",
  "about": "“Glycopeptide antibiotics” (Wyeth Holdings Corporation, priority 2001, dated 2005)",
  "key": {"Enterococcus sp.": {"test_system": "Enterococcus sp.", "test": "in vitro antibacterial evaluation, MIC by broth dilution", "format": "cell-based", "conditions": "broth dilution, 18 hours at 35° C.", "procedure,_shortened": "(§1)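 Broth dilution per NCCLS M7-A2 in Mueller-Hinton II medium, inoculum 5×10^5 CFU/mL, antibiotic range 64-0.06 μg/mL. MIC taken as lowest concentration inhibiting growth; Gram-positive panel includes recent clinical isolates resistant to methicillin, penicillin and/or vancomycin.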"}, "Staphylococcus sp.": {"test_system": "Staphylococcus sp.", "test": "in vitro antibacterial evaluation, MIC by broth dilution", "format": "cell-based", "conditions": "broth dilution, 18 hours at 35° C.", "procedure,_shortened": "as §1"}, "Streptococcus sp.": {"test_system": "Streptococcus sp.", "test": "in vitro antibacterial evaluation, MIC by broth dilution", "format": "cell-based", "conditions": "broth dilution, 18 hours at 35° C.", "procedure,_shortened": "as §1"}, "[1]": {"test_system": "Staphylococcus aureus-SMITH (GC 4543)", "test": "acute lethal infection in mice", "format": "in vivo", "conditions": "acute lethal infection, female CD-1 mice, intraperitoneal challenge, intravenous 30 min. after infection, 7 day survival", "procedure,_shortened": "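Intraperitoneal challenge of female CD-1 mice with a bacterial dose lethal to untreated animals within 24-48 hr; single iv treatment 30 min later, 5 mice per dose level. Survival is scored at day 7 and pooled from three experiments to give the median effective dose.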"}, "Escherichia coli": {"test_system": "Escherichia coli", "test": "in vitro antibacterial evaluation, MIC by broth dilution", "format": "cell-based", "conditions": "18 hours at 35° C."}},
  "data": [
    {"smiles": "CCCOc1ccc(COCC2OC(OC3C(CO)OC(Oc4ccc(CC5NC(=O)C(C(C)c6ccccc6)NC(=O)CNC(=O)C(CO)NC(=O)C(C(O)C6CNC(=N)N6C6OC(CO)C(O)C(O)C6O)NC(=O)C(C(O)C6CNC(=N)N6)NC5=O)cc4)C(O)C3O)C(O)C(O)C2O)cc1", "note": "(stereo not drawn) [Example 235, Cyclo[glycyl-β-methylphenylalanyl-O-[4-O-[6-O-(4-propoxybenzyl)hexopyranosyl]hexopyranosyl]tyrosyl-3-(2-iminoimidazolidin-4-yl)seryl-3-(3-hexopyranosyl-2-iminoimidazolidin-4-yl)serylseryl]]", "values": [
      {"measurement": "MIC Enterococcus avium (GC 4558)", "setting": "Enterococcus sp.", "value": 4, "unit": "µg/mL"},
      {"measurement": "MIC Enterococcus faecalis (ATCC 29212)", "setting": "Enterococcus sp.", "value": 4, "unit": "µg/mL"},
      {"measurement": "MIC Enterococcus faecalis (GC 2242)", "setting": "Enterococcus sp.", "value": 4, "unit": "µg/mL"},
      {"measurement": "MIC Enterococcus faecalis (GC 2691)", "setting": "Enterococcus sp.", "value": 4, "unit": "µg/mL"},
      {"measurement": "MIC Enterococcus faecalis (GC 3059)", "setting": "Enterococcus sp.", "value": "4 to 8", "unit": "µg/mL"},
      {"measurement": "MIC Enterococcus faecalis (GC 4552)", "setting": "Enterococcus sp.", "value": 4, "unit": "µg/mL"},
      {"measurement": "MIC Enterococcus faecalis (GC 4553)", "setting": "Enterococcus sp.", "value": 4, "unit": "µg/mL"},
      {"measurement": "MIC Enterococcus faecalis (GC 4554)", "setting": "Enterococcus sp.", "value": "4 to 8", "unit": "µg/mL"},
      {"measurement": "MIC Enterococcus faecalis (GC 6189)", "setting": "Enterococcus sp.", "value": 4, "unit": "µg/mL"},
      {"measurement": "MIC Enterococcus faecium (GC 2243)", "setting": "Enterococcus sp.", "value": 4, "unit": "µg/mL"},
      {"measurement": "MIC Enterococcus faecium (GC 4556)", "setting": "Enterococcus sp.", "value": 4, "unit": "µg/mL"},
      {"measurement": "MIC Enterococcus faecium (GC 4557)", "setting": "Enterococcus sp.", "value": "0.5 to 2", "unit": "µg/mL"},
      {"measurement": "MIC Enterococcus faecalis (ATCC 29212)", "setting": "Enterococcus sp.; strain ATCC 29212", "value": 4, "unit": "µg/mL"},
      {"measurement": "MIC Enterococcus faecium (GC 2243)", "setting": "Enterococcus sp.; strain GC 2243", "value": 4, "unit": "µg/mL"},
      {"measurement": "MIC Enterococcus faecalis (GC 4552)", "setting": "Enterococcus sp.; strain GC 4552", "value": 4, "unit": "µg/mL"},
      {"measurement": "MIC Enterococcus faecalis (GC 4553)", "setting": "Enterococcus sp.; strain GC 4553", "value": 4, "unit": "µg/mL"},
      {"measurement": "MIC Enterococcus faecalis (GC 4554)", "setting": "Enterococcus sp.; strain GC 4554", "value": "4 to 8", "unit": "µg/mL"},
      {"measurement": "MIC Enterococcus faecium (GC 4556)", "setting": "Enterococcus sp.; strain GC 4556", "value": 4, "unit": "µg/mL"},
      {"measurement": "MIC Enterococcus faecium (GC 4557)", "setting": "Enterococcus sp.; strain GC 4557", "value": "0.5 to 2", "unit": "µg/mL"},
      {"measurement": "MIC Enterococcus avium (GC 4558)", "setting": "Enterococcus sp.; strain GC 4558", "value": 4, "unit": "µg/mL"},
      {"measurement": "MIC Enterococcus faecalis (GC 6189)", "setting": "Enterococcus sp.; strain GC 6189", "value": 4, "unit": "µg/mL"},
      {"measurement": "MIC Enterococcus faecalis (GC 2242)", "setting": "Enterococcus sp.; inoculum 5×10^5 CFU/mL, strain GC 2242", "value": 4, "unit": "µg/mL"},
      {"measurement": "MIC Enterococcus faecalis (GC 2691)", "setting": "Enterococcus sp.; inoculum 5×10^5 CFU/mL, strain GC 2691", "value": 4, "unit": "µg/mL"},
      {"measurement": "MIC Enterococcus faecalis (GC 3059)", "setting": "Enterococcus sp.; inoculum 5×10^5 CFU/mL, strain GC 3059", "value": "4 to 8", "unit": "µg/mL"},
      {"measurement": "MIC Coagulase Negative Staphylococcus (GC 4547)", "setting": "Staphylococcus sp.", "value": "0.5 to 1", "unit": "µg/mL"},
      {"measurement": "MIC Coagulase Negative Staphylococcus (GC 4548)", "setting": "Staphylococcus sp.", "value": "0.25 to 0.5", "unit": "µg/mL"},
      {"measurement": "MIC Coagulase Negative Staphylococcus (GC 4549)", "setting": "Staphylococcus sp.", "value": "0.25 to 0.5", "unit": "µg/mL"},
      {"measurement": "MIC Coagulase Negative Staphylococcus (GC 4551)", "setting": "Staphylococcus sp.", "value": "0.5 to 1", "unit": "µg/mL"},
      {"measurement": "MIC Coagulase Negative Staphylococcus (GC 6257)", "setting": "Staphylococcus sp.", "value": "0.25 to 0.5", "unit": "µg/mL"},
      {"measurement": "MIC Staphylococcus aureus (ATCC 29213)", "setting": "Staphylococcus sp.", "value": "0.5 to 1", "unit": "µg/mL"},
      {"measurement": "MIC Staphylococcus aureus (GC 1131)", "setting": "Staphylococcus sp.", "value": "1 to 2", "unit": "µg/mL"},
      {"measurement": "MIC Staphylococcus aureus (GC 3051)", "setting": "Staphylococcus sp.", "value": "0.5 to 2", "unit": "µg/mL"},
      {"measurement": "MIC Staphylococcus aureus (GC 3053)", "setting": "Staphylococcus sp.", "value": "1 to 2", "unit": "µg/mL"},
      {"measurement": "MIC Staphylococcus aureus (GC 4541)", "setting": "Staphylococcus sp.", "value": "0.5 to 1", "unit": "µg/mL"},
      {"measurement": "MIC Staphylococcus aureus (GC 4542)", "setting": "Staphylococcus sp.", "value": "0.5 to 2", "unit": "µg/mL"},
      {"measurement": "MIC Staphylococcus aureus (GC 4544)", "setting": "Staphylococcus sp.", "value": "1 to 2", "unit": "µg/mL"},
      {"measurement": "MIC Staphylococcus aureus (GC 4545)", "setting": "Staphylococcus sp.", "value": "1 to 2", "unit": "µg/mL"},
      {"measurement": "MIC Staphylococcus aureus-SMITH (GC 4543)", "setting": "Staphylococcus sp.", "value": "0.5 to 1", "unit": "µg/mL"},
      {"measurement": "MIC Staphylococcus haemolyticus (GC 4546)", "setting": "Staphylococcus sp.", "value": "0.25 to 0.5", "unit": "µg/mL"},
      {"measurement": "MIC Staphylococcus aureus (ATCC 29213)", "setting": "Staphylococcus sp.; strain ATCC 29213", "value": "0.5 to 1", "unit": "µg/mL"},
      {"measurement": "MIC Staphylococcus aureus (GC 1131)", "setting": "Staphylococcus sp.; strain GC 1131", "value": "1 to 2", "unit": "µg/mL"},
      {"measurement": "MIC Staphylococcus aureus (GC 3051)", "setting": "Staphylococcus sp.; strain GC 3051", "value": "0.5 to 2", "unit": "µg/mL"},
      {"measurement": "MIC Staphylococcus aureus (GC 3053)", "setting": "Staphylococcus sp.; strain GC 3053", "value": "1 to 2", "unit": "µg/mL"},
      {"measurement": "MIC Staphylococcus aureus (GC 4541)", "setting": "Staphylococcus sp.; strain GC 4541", "value": "0.5 to 1", "unit": "µg/mL"},
      {"measurement": "MIC Staphylococcus aureus (GC 4542)", "setting": "Staphylococcus sp.; strain GC 4542", "value": "0.5 to 2", "unit": "µg/mL"},
      {"measurement": "MIC Staphylococcus aureus-SMITH (GC 4543)", "setting": "Staphylococcus sp.; strain GC 4543", "value": "0.5 to 1", "unit": "µg/mL"},
      {"measurement": "MIC Staphylococcus aureus (GC 4544)", "setting": "Staphylococcus sp.; strain GC 4544", "value": "1 to 2", "unit": "µg/mL"},
      {"measurement": "MIC Staphylococcus aureus (GC 4545)", "setting": "Staphylococcus sp.; strain GC 4545", "value": "1 to 2", "unit": "µg/mL"},
      {"measurement": "MIC Staphylococcus haemolyticus (GC 4546)", "setting": "Staphylococcus sp.; strain GC 4546", "value": "0.25 to 0.5", "unit": "µg/mL"},
      {"measurement": "MIC Coagulase Negative Staphylococcus (GC 4547)", "setting": "Staphylococcus sp.; strain GC 4547", "value": "0.5 to 1", "unit": "µg/mL"},
      {"measurement": "MIC Coagulase Negative Staphylococcus (GC 4548)", "setting": "Staphylococcus sp.; strain GC 4548", "value": "0.25 to 0.5", "unit": "µg/mL"},
      {"measurement": "MIC Coagulase Negative Staphylococcus (GC 4549)", "setting": "Staphylococcus sp.; strain GC 4549", "value": "0.25 to 0.5", "unit": "µg/mL"},
      {"measurement": "MIC Coagulase Negative Staphylococcus (GC 4551)", "setting": "Staphylococcus sp.; strain GC 4551", "value": "0.5 to 1", "unit": "µg/mL"},
      {"measurement": "MIC Coagulase Negative Staphylococcus (GC 6257)", "setting": "Staphylococcus sp.; strain GC 6257", "value": "0.25 to 0.5", "unit": "µg/mL"},
      {"measurement": "MIC Streptococcus agalactiae (GC 4564)", "setting": "Streptococcus sp.", "value": "0.25 to 0.5", "unit": "µg/mL"},
      {"measurement": "MIC Streptococcus pneumoniae (ATCC 6301)", "setting": "Streptococcus sp.", "value": 0.12, "unit": "µg/mL"},
      {"measurement": "MIC Streptococcus pneumoniae (GC 1894)", "setting": "Streptococcus sp.", "value": "<0.06", "unit": "µg/mL"},
      {"measurement": "MIC Streptococcus pneumoniae (GC 4565)", "setting": "Streptococcus sp.", "value": "<0.06 to 0.12", "unit": "µg/mL"},
      {"measurement": "MIC Streptococcus pyogenes (GC 4563)", "setting": "Streptococcus sp.", "value": 0.25, "unit": "µg/mL"},
      {"measurement": "MIC Streptococcus pneumoniae (ATCC 6301)", "setting": "Streptococcus sp.; inoculum 5×10^5 CFU/mL, strain ATCC 6301", "value": 0.12, "unit": "µg/mL"},
      {"measurement": "MIC Streptococcus pneumoniae (GC 1894)", "setting": "Streptococcus sp.; inoculum 5×10^5 CFU/mL, strain GC 1894", "value": "<0.06", "unit": "µg/mL"},
      {"measurement": "MIC Streptococcus pyogenes (GC 4563)", "setting": "Streptococcus sp.; inoculum 5×10^5 CFU/mL, strain GC 4563", "value": 0.25, "unit": "µg/mL"},
      {"measurement": "MIC Streptococcus agalactiae (GC 4564)", "setting": "Streptococcus sp.; inoculum 5×10^5 CFU/mL, strain GC 4564", "value": "0.25 to 0.5", "unit": "µg/mL"},
      {"measurement": "MIC Streptococcus pneumoniae (GC 4565)", "setting": "Streptococcus sp.; inoculum 5×10^5 CFU/mL, strain GC 4565", "value": "<0.06 to 0.12", "unit": "µg/mL"},
      {"measurement": "median effective dose (ED50), Staphylococcus aureus-SMITH (GC 4543)", "setting": "[1]", "value": 0.59, "unit": "mg/kg"},
      {"measurement": "MIC Escherichia coli (GC 4560)", "setting": "Escherichia coli", "value": "0.5 to 1", "unit": "µg/mL"}
    ]}
  ]
}
